Earlier results, collected in patent US20080254073A1, “Transdermal Patch Comprising Paroxetine” (IKSU PARMACEUTICAL CO., LTD., priority 2005, published 2008).

Experiments:
[1] = not given; remark: listed apart in the source

## Fc1ccc([C@@H]2CCNC[C@H]2COc2ccc3c(c2)OCO3)cc1 [Paroxetine]
After multiple oral administration, healthy volunteers
  elimination half-life: about 24 hours
Oral administration, healthy volunteers
  time to reach maximum plasma concentration of the drug: about five
oral, administered together with food or antacid
  influence of food or antacid on absorption: not influenced by food or antacid
oral, differences among individuals
  difference in the area under the plasma concentration-time curve (AUC): about 35 times
[1]
  partition coefficient of the drug using octanol-water: 169.20±17.19
[1]; octanol-water
  log P: 2.23
